Key:
Assay type in all cases: cell-based, human
ALK signaling pathway = test: CELx multiple pathway test, impedance biosensor cell adhesion, FAM150A/Ceritinib pair; conditions: activator FAM150A
Description: (§1) Biosensor and transducer: A 96-well impendence E-Plate (ACEA, San Diego, CA) was placed onto an xCELLigence RTCA MP Station impendence biosensor (ACEA, San Diego, CA). The biosensor measured simultaneously the impedance of every well. The change in impedance for a particular well is proportional to the number of cells and type of attachment the cells have with the impedance microplate. Changes in impedance indicate a response to perturbation of these small cell populations. Coatings: The 96-E-Plate were wells were coated with fibronectin and or collagen. Collagen is purchased from Advanced BioMatrix (Carlsbad, CA) and fibronectin from Sigma-Aldrich (St. Louis, MO). Tissue and cell samples: A total of 18 samples of human tumor cells from breast, lung, colon, ovarian, kidney, bladder cancer were studied. For each of these six different cancer types, tumor cell samples from three different patients were tested. Any biomarkers that are used to guide selection of targeted therapy are listed in Table 18 for each patient if they were present. Signaling Pathways activator agent and targeted therapeutic pairs: Eleven different signaling pathways were studied in each human tumor cell sample using […] signaling pathway activator agent and targeted therapeutic pairs. Each of the signaling pathway activator agent and targeted therapeutic pairs affect the same signaling pathway. Each of the signaling pathway activator agents is a well-characterized and specific agonist of its associated signaling pathway and each of the targeted therapeutic agents is a well-characterized and specific antagonist of the same associated signaling pathway. The signaling pathway activator agents and targeted therapeutics used to characterize the activity level of the associated signaling pathway are summarized in Table 16 below:
(§2) Other Reagents: Standard media antibiotics (e.g. penicillin, streptomycin) and other buffers were purchased and used as delivered from ATCC (Manassas, VA, USA) or Life Technologies (Grand Island, NY). Procedure: For each test of a patient cell sample with a pair of signaling pathway activator and targeted therapeutic agents, six wells were seeded with approximately 15,000 cells in 120 uL culture media. Twenty microliters of the targeted therapeutic agent were added to two wells of each patient's cells and 20 microliters of standard media were added to the other four wells for each patient 18 hours in advance of addition of the signaling pathway activator agent. Signaling pathway stimulation was initiated with the addition of 20 ul of the signaling pathway activator agent in the two wells that received a targeted therapeutic agent and in two additional wells for each patient's set of cells without the targeted therapeutic. The impedance recording of attachment and adhesion change was performed at 37° C., 5% C02. Data was recorded on a continuous basis throughout the test, where the data presented is from the initial baseline level of cell attachment compared to the subsequent effects following the targeted therapeutic agent and the signaling pathway activator agent additions on the 18 different patient samples.
(§3) For each of the 18 patient samples, up to 11 different signaling pathways were tested. The output value represents the difference between the amount of cell adhesion change resulting from addition of the signaling pathway activator agent and the amount of cell adhesion change resulting from addition of the targeted therapeutic agent.

Axl signaling pathway = test: CELx multiple pathway test, impedance biosensor cell adhesion, Gas6/R428 (BGB324) pair; conditions: activator Gas6
Description: as §1, §2, §3

[1] = tested on: HER2/HER3 signaling pathway; test: CELx multiple pathway test, impedance biosensor cell adhesion, NRG1/Pertuzumab pair; conditions: activator NRG1
Description: as §1, §2, §3

[2] = tested on: HER2/HER1 signaling pathway; test: CELx multiple pathway test, impedance biosensor cell adhesion, EGF/Pertuzumab pair; conditions: activator EGF
Description: as §1
as §2, with “samples. Results:” for “samples.”
as §3, with “Table 17 presents the results, expressed as an output value, for each of the 167 tests performed using the methods described above. For” for “For”

HER2 signaling pathway = test: CELx multiple pathway test, impedance biosensor cell adhesion, Pertuzumab; conditions: no activator listed
Description: as §1
as §2, with “samples. Results:” for “samples.”
as §3, with “Table 17 presents the results, expressed as an output value, for each of the 167 tests performed using the methods described above. For” for “For”

Cc1cc(Nc2ncc(Cl)c(Nc3ccccc3S(=O)(=O)C(C)C)n2)c(OC(C)C)cc1C1CCNCC1 [Ceritinib]
output value (ALK signaling pathway; C2 breast tumor cells): 5
output value (ALK signaling pathway; C21 breast tumor cells): 10
output value (ALK signaling pathway; C23 lung tumor cells): 16
output value (ALK signaling pathway; C24 lung tumor cells): 2
output value (ALK signaling pathway; C25 lung tumor cells): 8
output value (ALK signaling pathway; C34 breast tumor cells): 15
output value (ALK signaling pathway; C54 ovarian tumor cells): 14
output value (ALK signaling pathway; C69 ovarian tumor cells): 16
output value (ALK signaling pathway; C77 ovarian tumor cells): 37

Nc1nc(Nc2ccc3c(c2)CC[C@@H](N2CCCC2)CC3)nn1-c1cc2c(nn1)-c1ccccc1CCC2 [R428 (BGB324)]
output value (Axl signaling pathway; C2 breast tumor cells): 5
output value (Axl signaling pathway; C21 breast tumor cells): 6
output value (Axl signaling pathway; C23 lung tumor cells): 24
output value (Axl signaling pathway; C24 lung tumor cells): 7
output value (Axl signaling pathway; C25 lung tumor cells): 30
output value (Axl signaling pathway; C34 breast tumor cells): 44
output value (Axl signaling pathway; C54 ovarian tumor cells): 12
output value (Axl signaling pathway; C69 ovarian tumor cells): 10
output value (Axl signaling pathway; C77 ovarian tumor cells): 5

Pertuzumab
output value ([1]; C2 breast tumor cells): 426
output value ([1]; C21 breast tumor cells): −48
output value ([1]; C23 lung tumor cells): 61
output value ([1]; C24 lung tumor cells): 13
output value ([1]; C25 lung tumor cells): 9
output value ([1]; C54 ovarian tumor cells): 356
output value ([1]; C62 colorectal tumor cells): 24
output value ([1]; C71 colorectal tumor cells): 175
output value ([1]; C72 colorectal tumor cells): 21
output value ([1]; C77 ovarian tumor cells): 294
output value ([1]; C81 bladder tumor cells): 4
output value ([1]; C82 bladder tumor cells): 5
output value ([1]; C87 bladder tumor cells): 477
output value ([1]; C88 kidney tumor cells): 46
output value ([1]; C90 kidney tumor cells): −3
output value ([1]; C92 kidney tumor cells): −20
output value ([2]; C2 breast tumor cells): 28
output value ([2]; C21 breast tumor cells): 40
output value ([2]; C23 lung tumor cells): −6
output value ([2]; C24 lung tumor cells): 54
output value ([2]; C25 lung tumor cells): 38
output value ([2]; C34 breast tumor cells): −176
output value ([2]; C54 ovarian tumor cells): 180
output value ([2]; C62 colorectal tumor cells): 0
output value ([2]; C69 ovarian tumor cells): −115
output value ([2]; C71 colorectal tumor cells): −10
output value ([2]; C72 colorectal tumor cells): 0
output value ([2]; C77 ovarian tumor cells): 67
output value ([2]; C81 bladder tumor cells): 1
output value ([2]; C82 bladder tumor cells): 1
output value ([2]; C87 bladder tumor cells): 46
output value ([2]; C88 kidney tumor cells): −24
output value ([2]; C90 kidney tumor cells): 35
output value ([2]; C92 kidney tumor cells): 3
output value (HER2 signaling pathway; C2 breast tumor cells): 454
output value (HER2 signaling pathway; C21 breast tumor cells): −9
output value (HER2 signaling pathway; C23 lung tumor cells): −55
output value (HER2 signaling pathway; C24 lung tumor cells): 66
output value (HER2 signaling pathway; C25 lung tumor cells): 47
output value (HER2 signaling pathway; C34 breast tumor cells): −90
output value (HER2 signaling pathway; C54 ovarian tumor cells): 537
output value (HER2 signaling pathway; C62 colorectal tumor cells): 24
output value (HER2 signaling pathway; C69 ovarian tumor cells): −20
output value (HER2 signaling pathway; C71 colorectal tumor cells): 165
output value (HER2 signaling pathway; C72 colorectal tumor cells): 21
output value (HER2 signaling pathway; C77 ovarian tumor cells): 361
output value (HER2 signaling pathway; C81 bladder tumor cells): 5
output value (HER2 signaling pathway; C82 bladder tumor cells): 6
output value (HER2 signaling pathway; C87 bladder tumor cells): 523
output value (HER2 signaling pathway; C88 kidney tumor cells): 16
output value (HER2 signaling pathway; C90 kidney tumor cells): 32
output value (HER2 signaling pathway; C92 kidney tumor cells): 23

From patent US12320799B2, “Methods of measuring signaling pathway activity for selection of therapeutic agents” (Celcuity Inc., priority 2017, dated 2025)
